Where a name gives a salt, the structure may show the parent alone. Read-outs that look alike come from different tables or passages of the source.

The record followed here is patent US20250144067A1, “PERSONALIZED STARVATION THERAPY FOR CANCER” (Faeth Therapeutics, Inc., priority 2021, published 2025).

In assay [1] the test system is NCI-H292 lung cancer cells. Put plainly: FDA drug screening, complete media vs cholesterol-free media with simvastatin (TABLE 2). It is filed as cell-based, human.
Assay [2] deals with NCI-H292 lung cancer cells. As to the kind of experiment: FDA drug screening, complete media vs cholesterol-free media without statin (TABLE 1). It counts as cell-based, human.
Setting [3] is: NCI-H292 cells, FDA library drug in cholesterol-free media with simvastatin 0.04 μM.
Where [4] appears, read: NCI-H292 cells, FDA library drug in complete media.
Setting [5] is: complete media vs cholesterol-free media + simvastatin (0.04 μM), >0 enhanced anti-cancer activity, about 0 neutral, <0 antagonist.
The mark [6] stands for this setting: NCI-H292 cells, FDA drug library screen, complete media.
Where [7] appears, read: NCI-H292 cells, FDA drug library screen, cholesterol-free media with simvastatin 0.04 μM.
Setting [8] is: complete media minus cholesterol-free media + simvastatin, >0 enhanced anti-cancer activity, about 0 neutral, <0 antagonist.
Setting [9] is: Complete minus Cholesterol-free, greater than 0 enhanced anti-cancer activity, about 0 neutral, below 0 antagonists.
Where [10] appears, read: NCI-H292 cells in cholesterol-free media without statin.
Where [11] appears, read: NCI-H292 cells in complete media.
The mark [12] stands for this setting: NCI-H292 cells, drug in cholesterol-free media with simvastatin 0.04 μM.
[13] abbreviates: NCI-H292 cells, drug in complete media.
[14] abbreviates: Complete minus Cholesterol-free, >0 enhanced anti-cancer activity, about 0 neutral, <0 antagonist.
Setting [15] is: NCI-H292 cells, cholesterol-free media without statin, FDA drug library screen.
Where [16] appears, read: NCI-H292 cells, complete media, FDA drug library screen.
Where [17] appears, read: NCI-H292 cells, cholesterol-free media with simvastatin 0.04 μM, cell growth value in FDA drug screen.
Where [18] appears, read: NCI-H292 cells, complete media, cell growth value in FDA drug screen.
The mark [19] stands for this setting: NCI-H292 cells, cholesterol-free media without statin.
Setting [20] is: complete vs cholesterol-free media, […].

Consider `CCN1CCCC(OC(=O)C(c2ccccc2)c2ccccc2)C1` (centres unmarked) [Piperidolate (hydrochloride)], for which, in assay [1] ((hydrochloride)), the “Cholesterol-free media + simvastatin (0.04 μM)” value worked out at 0.5751, the “Complete Media” value is given as 0.901 and the Difference amounted to 0.33. In assay [2] ((hydrochloride)), this compound showed a Cholesterol-free of 0.554, a Complete of 1.098 and a Difference of 0.54.

For the compound `C[C@H](O)C(=O)Nc1c(I)c(C(=O)NC(CO)CO)c(I)c(C(=O)NC(CO)CO)c1I` [Iopamidol], the “Cholesterol-free media + simvastatin (0.04 μM)” value in assay [1] (setting [3]) is given as 1.516. In addition, in assay [1] (setting [4]), the “Complete Media” value was 1.092. Also, the Difference is −0.42 in assay [1] (setting [5]) and −0.15 in assay [2] (Complete minus Cholesterol-free, greater than 0 enhanced anti-cancer activity, about 0 neutral, below 0 antagonist). For the same compound, in assay [2] (NCI-H292 cells, FDA drug library screen, cholesterol-free media without statin), the Cholesterol-free is given as 1.136. This compound also came in with a Complete in assay [2] (setting [6]) of 0.9871.

Take `CN[C@@H]1[C@H](O)[C@H](NC)[C@H]2O[C@@]3(O)C(=O)C[C@@H](C)O[C@H]3O[C@@H]2[C@H]1O.Cl.Cl.O.O.O.O.O`: the “Cholesterol-free media + simvastatin (0.04 μM)” value in assay [1] (setting [7]) was found to be 0.773. The “Complete Media” value in assay [1] (setting [6]) was 0.9222. Further, the Difference in assay [1] (setting [8]) was 0.15; in assay [2] (setting [9]) it was −0.93. In assay [2] (setting [10]), this compound had a Cholesterol-free of 1.889. In assay [2] (setting [11]), this compound yielded a Complete of 0.9594.

For the compound Asenapine (maleate), in assay [1] (setting [12]), the “Cholesterol-free media + simvastatin (0.04 μM)” value is given as 1.309. In addition, in assay [1] (setting [13]), the “Complete Media” value is on record as 1.135. The Difference in assay [1] (setting [5]) was −0.17; in assay [2] (setting [9]), −0.56. The compound further had a Cholesterol-free in assay [2] (setting [10]) of 1.49. For the same compound, in assay [2] (setting [11]), the Complete turned out to be 0.9322.

`C[C@]12C=CC(=O)C=C1CC[C@@H]1[C@@H]2[C@@H](O)C[C@@]2(C)[C@H]1CC[C@]2(O)C(=O)CO` [Prednisolone]: the “Cholesterol-free media + simvastatin (0.04 μM)” value in assay [1] (setting [12]) was determined as 0.6412. Besides, the “Complete Media” value in assay [1] (setting [13]) was found to be 0.4437. In addition, the figures for the Difference in assay [1] (setting [5]) and in assay [2] (setting [14]) were −0.20 and −0.02, respectively. The Cholesterol-free in assay [2] (setting [15]) was 0.4941. The compound also had a Complete in assay [2] (setting [16]) of 0.4768.

For the compound `O=C(NC1CCNCC1)[C@@H]1CC[C@@H]2CN1C(=O)N2OS(=O)(=O)O` [Relebactam], the “Cholesterol-free media + simvastatin (0.04 μM)” value in assay [1] (setting [17]) is given as 0.885. In assay [1] (setting [18]), the “Complete Media” value came to 0.9451. The Difference in assay [1] (setting [8]) is 0.06; in assay [2] (setting [9]), −0.59. This compound also came in with a Cholesterol-free in assay [2] (setting [10]) of 1.438. The compound further came in with a Complete in assay [2] (setting [11]) of 0.845.

Regarding Clomiphene (citrate), in assay [1] (setting [7]), the “Cholesterol-free media + simvastatin (0.04 μM)” value was 0.1462. In assay [1] (setting [6]), the “Complete Media” value came out at 1.001. The Difference in assay [1] (setting [8]) is 0.85; in assay [2] (setting [14]) it was −0.25. For the same compound, in assay [2] (setting [19]), the Cholesterol-free was 1.001. The compound also registered a Complete in assay [2] (NCI-H292 cells, complete media) of 0.7484.

With `C#C[C@]1(O)CC[C@H]2[C@@H]3CCC4=CC(=O)CC[C@@H]4[C@H]3CC[C@@]21C` [Norethindrone], the “Cholesterol-free media + simvastatin (0.04 μM)” value in assay [1] (setting [7]) came out at 0.8746. In addition, the “Complete Media” value in assay [1] (setting [6]) came to 1.458. For the same compound, the Difference in assay [1] (setting [8]) is recorded as 0.58; in assay [2] (complete vs cholesterol-free media, >0 enhanced anti-cancer activity, about 0 neutral, <0 antagonist), 0.23. The compound also displayed a Cholesterol-free in assay [2] (setting [15]) of 1.186. In addition, the Complete in assay [2] (setting [16]) was determined as 1.412.

As for `CC(C)NCC(O)c1ccc(O)c(O)c1` (centres unmarked) [Isoprenaline (hydrochloride)], the “Cholesterol-free media + simvastatin (0.04 μM)” value in assay [1] (setting [7]) worked out at 1.496. Moreover, in assay [1] (setting [6]), the “Complete Media” value stood at 1.355. Besides, the Difference in assay [1] (setting [5]) is −0.14; in assay [2] (setting [9]) it was −0.50. The compound further had a Cholesterol-free in assay [2] (setting [10]) of 1.676.

Regarding `Cc1cccc(C(C)c2cnc[nH]2)c1C` (centres unmarked) [Medetomidine (hydrochloride)], the “Cholesterol-free media + simvastatin (0.04 μM)” value in assay [1] (setting [17]) stood at 0.8752. Besides, in assay [1] (setting [18]), the “Complete Media” value was 0.9447. The Difference in assay [1] (setting [8]) is on record as 0.07; in assay [2] (complete vs cholesterol-free media, greater than 0 enhanced anti-cancer activity, about 0 neutral, below 0 antagonists) it was −0.31. The compound also showed a Cholesterol-free in assay [2] (setting [19]) of 1.452. In assay [2] (NCI-H292 cells, complete media), this compound showed a Complete of 1.139.

For `CC(C)OC(=O)C(C)(C)Oc1ccc(C(=O)c2ccc(Cl)cc2)cc1` [Fenofibrate], the “Cholesterol-free media + simvastatin (0.04 μM)” value in assay [1] (setting [12]) is reported as 1.641. In assay [1] (setting [13]), the “Complete Media” value worked out at 1.401. Moreover, the Difference in assay [1] (setting [5]) is reported as −0.24; in assay [2] (setting [14]), −0.06. Also, in assay [2] (setting [15]), the Cholesterol-free is reported as 0.8551. This compound also showed a Complete in assay [2] (setting [16]) of 0.7932.

As for `Cc1ccsc1C(=CCCN1CCC[C@@H](C(=O)O)C1)c1sccc1C` [Tiagabine (hydrochloride)], the “Cholesterol-free media + simvastatin (0.04 μM)” value in assay [1] (setting [17]) came to 0.8465. In addition, the “Complete Media” value in assay [1] (setting [18]) came to 0.9752. Also, the figures for the Difference in assay [1] (setting [8]) and in assay [2] (setting [14]) were 0.13 and −0.25, respectively. The Cholesterol-free in assay [2] (setting [19]) came out at 1.406. Besides, in assay [2] (NCI-H292 cells, complete media), the Complete worked out at 1.159.

Regarding Polidocanol, the “Cholesterol-free media + simvastatin (0.04 μM)” value in assay [1] (setting [7]) worked out at 1.046. Besides, the “Complete Media” value in assay [1] (setting [6]) is recorded as 0.8917. The Difference in assay [1] (complete media vs cholesterol-free media + simvastatin (0.04 μM), […]) was −0.15; in assay [2] (setting [20]), 0.16. This compound returned a Cholesterol-free in assay [2] (setting [15]) of 0.7606. The Complete in assay [2] (setting [16]) was 0.9235.

With `O=C1CN(/N=C/C=C/c2ccc([N+](=O)[O-])o2)C(=O)N1` [Furagin], the “Cholesterol-free media + simvastatin (0.04 μM)” value in assay [1] (NCI-H292 cells, cholesterol-free media with simvastatin 0.04 μM, FDA drug library screen (TABLE 2)) was determined as 1.137. In addition, the “Complete Media” value in assay [1] (NCI-H292 cells, complete media, FDA drug library screen (TABLE 2)) turned out to be 1.079. Further, the Difference was −0.06 in assay [1] (complete media minus cholesterol-free media + simvastatin (0.04 μM), >0 enhanced anti-cancer activity, about 0 neutral, <0 antagonist) and −0.23 in assay [2] (setting [14]). In assay [2] (setting [19]), the Cholesterol-free is listed as 1.216. Further, the Complete in assay [2] (NCI-H292 cells, complete media) turned out to be 0.9861.

Regarding `NC[C@H]1O[C@H](O[C@H]2[C@H](O[C@@H]3O[C@H](CO)[C@@H](O)[C@H]3O)[C@@H](O)[C@H](N)C[C@@H]2N)[C@H](N)[C@@H](O)[C@@H]1O.O=S(=O)(O)O` [Ribostamycin (sulfate)], the “Cholesterol-free media + simvastatin (0.04 μM)” value in assay [1] (setting [3]) is 1.833. In addition, in assay [1] (setting [4]), the “Complete Media” value is given as 1.478. The Difference is recorded as −0.36 in assay [1] (setting [5]) and −0.22 in assay [2] (setting [14]). In assay [2] (setting [19]), this compound yielded a Cholesterol-free of 1.714. The compound further had a Complete in assay [2] (NCI-H292 cells, complete media) of 1.495.

Take Dabrafenib (Mesylate): the “Cholesterol-free media + simvastatin (0.04 μM)” value in assay [1] (setting [7]) turned out to be 0.4336. In addition, the “Complete Media” value in assay [1] (setting [6]) amounted to 0.6478. Also, the Difference was determined as 0.21 in assay [1] (complete media minus cholesterol-free media + simvastatin, […]) and 0.23 in assay [2] (setting [20]). In assay [2] (setting [15]), the Cholesterol-free is 0.4044. Moreover, in assay [2] (setting [16]), the Complete was 0.6337.

As for `NCCCCCC(=O)O` [6-Aminocaproic acid], in assay [1], the “Cholesterol-free media + simvastatin (0.04 μM)” value was determined as 1.226, the “Complete Media” value was found to be 1.745 and the Difference came to 0.52. In assay [2], the Cholesterol-free was found to be 1.11, the Complete stood at 1.715 and the Difference is recorded as 0.60.

In the case of `Cc1ccc(C(=O)Nc2ccc(CN3CCN(C)CC3)c(C(F)(F)F)c2)cc1C#Cc1cnc2cccnn12` [Ponatinib], in assay [1], the “Cholesterol-free media + simvastatin (0.04 μM)” value amounted to 0.4683, the “Complete Media” value was found to be 0.4064 and the Difference is −0.06. In addition, in assay [2], the Cholesterol-free was found to be 0.1141, the Complete came to 0.07529 and the Difference is on record as −0.04.

With `Cc1ccc(Sc2ccccc2N2CCNCC2)c(C)c1` [Vortioxetine (hydrobromide)], the “Cholesterol-free media + simvastatin (0.04 μM)” value in assay [1] (setting [3]) was found to be 1.363. Further, the “Complete Media” value in assay [1] (setting [4]) is given as 1.083. The Difference was −0.28 in assay [1] (setting [5]) and −0.30 in assay [2] (setting [14]). The Cholesterol-free in assay [2] (setting [19]) is reported as 0.7215. Moreover, in assay [2] (NCI-H292 cells, complete media), the Complete was found to be 0.4184.
